Patent US20190083462A1, “PREVENTION OF NSAID ENTEROPATHY WITH MICROBIOTA-DERIVED TRYPTOPHAN-METABOLITE” (THE TEXAS A&M UNIVERSITY SYSTEM, priority 2016, published 2019)

System: fecal microbiota
Experiment: Inferred metagenome of the fecal microbiota (PICRUSt, SIMPER)
Type: in vivo, mice
Details: for mean % abundance: day 7 feces
Description: Eight- to 10-week-old specific-pathogen-free C57BL/6J mice were purchased and allowed to acclimate for 2 weeks. Mice were fed standardized laboratory rodent diet and sterile water ad libitum. […] Mice were then rehoused on the basis of treatment group assignment, with 5 animals/group-cage. To induce NSAID enteropathy, mice in group 1 were gavaged once daily with indomethacin (5 mg/kg; for 7 days; Sigma Aldrich, St. Louis, Mo.) dissolved in dimethylysulfoxide (DMSO) (Sigma Aldrich, St. Louis, Mo.) and further diluted in phosphate buffered saline (PBS). […] Sigma Aldrich, St. Louis, Mo.) dissolved in sterile water warmed to 55° C. […] All mice were gavaged with equal volumes (200 μL) and equal concentrations of DMSO (0.001%). Feces were collected daily by placing individual animals in sterile plastic cups that were RNase- and DNase-free until they passed feces. The mice were immediately returned to their home cages and the feces immediately flash frozen at -80° C. All animals were euthanized via CO2 asphyxiation on day 8 (i.e., after 7 days of treatment). […] Life Technologies, Carlsbad, Calif.), homogenized, and prepared as a single cell suspension for flow cytometric analysis as previously described (Wang […]. Measuring bacterial load and immune responses in mice infected with Listeria monocytogenes. Journal of Visualized Experiments: JoVE 2011). The software Phylogenetic Investigation of Communities by Reconstruction of Unobserved States (PICRUSt) was used to predict the metagenome ([…], Knights […] Thurber R L, Knight R, et al. Predictive functional profiling of microbial communities using 16S rRNA marker gene sequences. Nature Biotechnology 2013; 31:814-21). Sequencing data were prepared as described above, but sequences were then clustered into OTUs using a closed-reference OTU picking protocol at the 97% sequencing identity level [http://qiime.org/scripts/pick_closed_reference_otus.html]. The resulting OTU table was normalized by the expected copy number(s) of the 16s rRNA gene in each OTU. PICRUSt was then used to predict the metagenome [https://picrust.github.io/picrust/tutorials/metagenome_prediction.html#metagenome-prediction-tutorial]. Each sample was rarefied to an even sequencing depth to adjust for uneven sequencing depth prior to further analysis. Differences in the metagenomes among the groups were investigated by visual assessment of clustering on PCA and by analysis of similarity (ANOSIM) calculated on Bray Curtis dissimilarity metric.

[1] = Unclassified, Metabolism, Energy metabolism
[2] = Unclassified, Metabolism, Others

COc1ccc2c(c1)c(CC(=O)O)c(C)n2C(=O)c1ccc(Cl)cc1 [NSAID, indomethacin]
vs. Control Direction (Alanine, aspartate and glutamate metabolism): ↓
vs. Control Direction (Amino Acid related enzymes): ↑
vs. Control Direction (Carbohydrate Metabolism, Citrate cycle (TCA cycle)): ↑
vs. Control Direction (Cell Motility, Bacterial chemotaxis): ↑
vs. Control Direction (Cell Motility, Bacterial motility proteins): ↑
vs. Control Direction (Cell Motility, Flagellar assembly): ↑
vs. Control Direction (Cellular Processes and Signalling, Sporulation): ↑
mean % abundance (Cellular Processes, Cell Motility, Bacterial chemotaxis): 1.30%
mean % abundance (Cellular Processes, Cell Motility, Bacterial motility proteins): 0.81%
mean % abundance (Cellular Processes, Cell Motility, Flagellar assembly): 0.91%
vs. Control Direction (Chaperones and folding catalysts): ↓
vs. Control Direction (Energy Metabolism, Carbon fixation pathways in prokaryotes): ↓
vs. Control Direction (Energy Metabolism, Oxidative phosphorylation): ↑
mean % abundance (Environmental Information Processing, Membrane Transport, ABC transporters): 1.71%
mean % abundance (Environmental Information Processing, Membrane Transport, Phosphotransferase system (PTS)): 0.18%
mean % abundance (Environmental Information Processing, Membrane Transport, Transporters): 3.82%
mean % abundance (Environmental Information Processing, Signal Transduction, Two-component system): 0.20%
vs. Control Direction (Folate biosynthesis): ↑
mean % abundance (Genetic Information Processing, Folding, Sorting and Degradation, Chaperones and folding catalysts): 0.61%
mean % abundance (Genetic Information Processing, Replication and Repair DNA repair and recombination proteins): 3.12%
mean % abundance (Genetic Information Processing, Replication and Repair, DNA replication proteins): 0.50%
mean % abundance (Genetic Information Processing, Replication and Repair, Homologous recombination): 2.12%
mean % abundance (Genetic Information Processing, Transcription, Transcription factors): 0.31%
mean % abundance (Genetic Information Processing, Translation Ribosome Biogenesis): 0.70%
mean % abundance (Genetic Information Processing, Translation, Ribosome): 2.94%
vs. Control Direction (Lipopolysaccharide biosynthesis): ↑
vs. Control Direction (Lipopolysaccharide biosynthesis proteins): ↑
vs. Control Direction (Membrane Transport, ABC transporters): ↓
vs. Control Direction (Membrane Transport, Phosphotransferase system (PTS)): ↓
vs. Control Direction (Membrane Transport, Transporters): ↓
vs. Control Direction (Membrane and intracellular structural molecules): ↓
mean % abundance (Metabolism, Amino Acid Metabolism, Alanine, aspartate and glutamate metabolism): 1.14%
mean % abundance (Metabolism, Amino Acid Metabolism, Amino Acid related enzymes): 1.65%
mean % abundance (Metabolism, Carbohydrate Metabolism, Citrate cycle (TCA cycle)): 1.25%
mean % abundance (Metabolism, Energy Metabolism, Carbon fixation pathways in prokaryotes): 0.40%
mean % abundance (Metabolism, Energy Metabolism, Oxidative phosphorylation): 1.65%
mean % abundance (Metabolism, Glycan Biosynthesis and Metabolism, Lipopolysaccharide biosynthesis proteins): 1.48%
mean % abundance (Metabolism, Glycan Biosynthesis and Metabolism, Lipopolysaccharide biosynthesis): 1.55%
mean % abundance (Metabolism, Glycan Biosynthesis and Metabolism, Other glycan degradation): 1.27%
mean % abundance (Metabolism, Metabolism of Cofactors and Vitamins, Folate biosynthesis): 1.66%
mean % abundance (Metabolism, Metabolism of Cofactors and Vitamins, One carbon pool by folate): 0.49%
mean % abundance (Metabolism, Metabolism of Cofactors and Vitamins, Porphyrin and chlorophyll metabolism): 2.42%
mean % abundance (Metabolism, Nucleotide Metabolism, Purine metabolism): 0.90%
mean % abundance (Metabolism, Nucleotide Metabolism, Pyrimidine metabolism): 2.24%
vs. Control Direction (Nucleotide Metabolism, Purine metabolism): ↓
vs. Control Direction (Nucleotide Metabolism, Pyrimidine metabolism): ↑
vs. Control Direction (One carbon pool by folate): ↓
vs. Control Direction (Other glycan degradation): ↑
vs. Control Direction (Pores ion channels): ↑
vs. Control Direction (Porphyrin and chlorophyll metabolism): ↑
vs. Control Direction (Replication and Repair DNA repair and recombination proteins): ↑
vs. Control Direction (Replication and Repair, DNA replication proteins): ↓
vs. Control Direction (Replication and Repair, Homologous recombination): ↑
vs. Control Direction (Signal Transduction, Two-component system): ↓
vs. Control Direction (Transcription, Transcription factors): ↓
vs. Control Direction (Translation Ribosome Biogenesis): ↓
vs. Control Direction (Translation, Ribosome): ↑
mean % abundance (Unclassified, Cellular Processes and Signaling, Pores ion channels): 3.54%
mean % abundance (Unclassified, Cellular Processes and Signalling, Membrane and intracellular structural molecules): 0.17%
mean % abundance (Unclassified, Cellular Processes and Signalling, Sporulation): 1.00%
vs. Control Direction [1]: ↑
mean % abundance [1]: 1.25%
vs. Control Direction [2]: ↑
mean % abundance [2]: 0.84%
